Assay results taken from PubChem BioAssay (NCI).
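Each compound was tested at five concentrations against cells in 96-well plates for 48 hours. At the GI50, growth is halved. TGI denotes the concentration required for complete inhibition of growth.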

Legend:
Assay in all cases: NCI-60 cell line screen, 48 h
SK-MEL-5 melanoma = tested on: SK-MEL-5 melanoma
SNB-19 CNS = tested on: SNB-19 CNS
SK-MEL-2 melanoma = tested on: SK-MEL-2 melanoma
HCC-2998 colon = tested on: HCC-2998 colon
SF-295 CNS = tested on: SF-295 CNS
CAKI-1 renal = tested on: CAKI-1 renal
HCT-15 colon = tested on: HCT-15 colon
MDA-MB-435 = tested on: MDA-MB-435
NCI-H460 lung = tested on: NCI-H460 lung
A498 renal = tested on: A498 renal
SK-MEL-28 melanoma = tested on: SK-MEL-28 melanoma
HT29 colon = tested on: HT29 colon
PC-3 prostate = tested on: PC-3 prostate
OVCAR-3 ovarian = tested on: OVCAR-3 ovarian
MDA-MB-231 breast = tested on: MDA-MB-231 breast
786-0 renal = tested on: 786-0 renal
COLO 205 colon = tested on: COLO 205 colon
SNB-75 CNS = tested on: SNB-75 CNS
ACHN renal = tested on: ACHN renal
IGROV1 ovarian = tested on: IGROV1 ovarian
NCI-H23 lung = tested on: NCI-H23 lung
SK-OV-3 ovarian = tested on: SK-OV-3 ovarian
EKVX NSCLC = tested on: EKVX NSCLC
A549 NSCLC = tested on: A549 NSCLC
TK-10 renal = tested on: TK-10 renal
RPMI-8226 leukemia = tested on: RPMI-8226 leukemia
MDA-MB-468 breast = tested on: MDA-MB-468 breast
NCI-H226 lung = tested on: NCI-H226 lung
HL-60(TB) leukemia = tested on: HL-60(TB) leukemia
MCF7 breast = tested on: MCF7 breast
KM12 colon = tested on: KM12 colon
HS 578T breast = tested on: HS 578T breast
K-562 leukemia = tested on: K-562 leukemia
SR leukemia = tested on: SR leukemia
SN12C renal = tested on: SN12C renal
RXF 393 renal = tested on: RXF 393 renal
MOLT-4 leukemia = tested on: MOLT-4 leukemia
SF-539 CNS = tested on: SF-539 CNS
U251 CNS = tested on: U251 CNS
OVCAR-5 ovarian = tested on: OVCAR-5 ovarian
HOP-62 NSCLC = tested on: HOP-62 NSCLC
SF-268 CNS = tested on: SF-268 CNS
M14 melanoma = tested on: M14 melanoma
UACC-62 melanoma = tested on: UACC-62 melanoma
UO-31 renal = tested on: UO-31 renal
BT-549 breast = tested on: BT-549 breast
UACC-257 melanoma = tested on: UACC-257 melanoma
MALME-3M melanoma = tested on: MALME-3M melanoma
LOX IMVI melanoma = tested on: LOX IMVI melanoma

CSc1ccc(NC(=O)c2ccc3nn(/C(C#N)=C/c4ccccn4)nc3c2)cc1 was tested, and the GI50 (SK-MEL-5 melanoma) was 1680 nM, the TGI (SK-MEL-5 melanoma) was 3110 nM and the GI50 (SNB-19 CNS) was 1850 nM. For the same compound, the TGI (SNB-19 CNS) was 4260 nM, the GI50 (SK-MEL-2 melanoma) was 1880 nM and the TGI (SK-MEL-2 melanoma) was 3530 nM. The GI50 (HCC-2998 colon) was 1650 nM, the TGI (HCC-2998 colon) was 3010 nM and the GI50 (SF-295 CNS) was 1730 nM. The TGI (SF-295 CNS) was 3290 nM, the GI50 (CAKI-1 renal) was 1070 nM and the TGI (CAKI-1 renal) was 2350 nM. It also gave a GI50 (HCT-15 colon) of 1150 nM, a TGI (HCT-15 colon) of 2510 nM and a GI50 (MDA-MB-435) of 1540 nM. The TGI (MDA-MB-435) was 3190 nM, the GI50 (NCI-H460 lung) was 1880 nM and the TGI (NCI-H460 lung) was 3950 nM. For the same compound, the GI50 (A498 renal) was 1900 nM, the TGI (A498 renal) was 3710 nM and the GI50 (SK-MEL-28 melanoma) was 1670 nM. The TGI (SK-MEL-28 melanoma) was 3050 nM, the GI50 (HT29 colon) was 1870 nM and the TGI (HT29 colon) was 4510 nM. It also gave a GI50 (PC-3 prostate) of 1880 nM, a TGI (PC-3 prostate) of 3970 nM and a GI50 (OVCAR-3 ovarian) of 991 nM. It also gave a TGI (OVCAR-3 ovarian) of 2640 nM, a GI50 (MDA-MB-231 breast) of 1520 nM and a TGI (MDA-MB-231 breast) of 2970 nM. For the same compound, the GI50 (786-0 renal) was 1700 nM, the TGI (786-0 renal) was 3130 nM and the GI50 (COLO 205 colon) was 1720 nM. It also gave a TGI (COLO 205 colon) of 3300 nM, a GI50 (SNB-75 CNS) of 1420 nM and a TGI (SNB-75 CNS) of 4260 nM. The GI50 (ACHN renal) was 1550 nM, the TGI (ACHN renal) was 2880 nM and the GI50 (IGROV1 ovarian) was 1740 nM. It also gave a TGI (IGROV1 ovarian) of 3360 nM, a GI50 (NCI-H23 lung) of 1570 nM and a TGI (NCI-H23 lung) of 2990 nM. The GI50 (SK-OV-3 ovarian) was 2720 nM, the TGI (SK-OV-3 ovarian) was 6960 nM and the GI50 (EKVX NSCLC) was 1540 nM. The TGI (EKVX NSCLC) was 3010 nM, the GI50 (A549 NSCLC) was 2340 nM and the TGI (A549 NSCLC) was 5990 nM. It also gave a GI50 (TK-10 renal) of 1750 nM, a TGI (TK-10 renal) of 3210 nM and a GI50 (RPMI-8226 leukemia) of 1770 nM. For the same compound, the TGI (RPMI-8226 leukemia) was 5710 nM, the GI50 (MDA-MB-468 breast) was 1080 nM and the TGI (MDA-MB-468 breast) was 2590 nM. It also gave a GI50 (NCI-H226 lung) of 1980 nM, a TGI (NCI-H226 lung) of 4730 nM and a GI50 (HL-60(TB) leukemia) of 626 nM. For the same compound, the TGI (HL-60(TB) leukemia) was 3750 nM, the GI50 (MCF7 breast) was 971 nM and the TGI (MCF7 breast) was 2470 nM. It also gave a GI50 (KM12 colon) of 2070 nM, a TGI (KM12 colon) of 4440 nM and a GI50 (HS 578T breast) of 2200 nM. It also gave a TGI (HS 578T breast) of 7680 nM, a GI50 (K-562 leukemia) of 681 nM and a TGI (K-562 leukemia) of 5050 nM. For the same compound, the GI50 (SR leukemia) was 1150 nM, the TGI (SR leukemia) was 7600 nM and the GI50 (SN12C renal) was 1870 nM. The TGI (SN12C renal) was 3970 nM, the GI50 (RXF 393 renal) was 1240 nM and the TGI (RXF 393 renal) was 2510 nM. For the same compound, the GI50 (MOLT-4 leukemia) was 796 nM, the TGI (MOLT-4 leukemia) was 4630 nM and the GI50 (SF-539 CNS) was 1670 nM. For the same compound, the TGI (SF-539 CNS) was 3040 nM, the GI50 (U251 CNS) was 1590 nM and the TGI (U251 CNS) was 3170 nM. The GI50 (OVCAR-5 ovarian) was 1590 nM, the TGI (OVCAR-5 ovarian) was 3070 nM and the GI50 (HOP-62 NSCLC) was 1950 nM. It also gave a TGI (HOP-62 NSCLC) of 3870 nM, a GI50 (SF-268 CNS) of 2360 nM and a TGI (SF-268 CNS) of 6210 nM. For the same compound, the GI50 (M14 melanoma) was 1780 nM, the TGI (M14 melanoma) was 3300 nM and the GI50 (UACC-62 melanoma) was 1620 nM. It also gave a TGI (UACC-62 melanoma) of 3060 nM, a GI50 (UO-31 renal) of 1200 nM and a TGI (UO-31 renal) of 2430 nM. For the same compound, the GI50 (BT-549 breast) was 1670 nM, the TGI (BT-549 breast) was 3110 nM and the GI50 (UACC-257 melanoma) was 1640 nM. For the same compound, the TGI (UACC-257 melanoma) was 3170 nM, the GI50 (MALME-3M melanoma) was 1450 nM and the TGI (MALME-3M melanoma) was 2830 nM. It also gave a GI50 (LOX IMVI melanoma) of 1230 nM and a TGI (LOX IMVI melanoma) of 2520 nM.
